Test results as given in patent US11872238B2, “Nutritional composition for use to enhance attention and/or reduce impulsivity” (SOCIETE DES PRODUITS NESTLE S.A., priority 2017, dated 2024).

What was measured:
mouse pups [1] = test: Neurodevelopmental milestones: onset and strength of reflexes on the Fox scale; format: in vivo; settings: mouse pups receiving milk absent of 6′-SL, compared with pups receiving milk comprising 6′-SL
Method: (§1) This effects were observed on a background of no changes in term of neurodevelopment evaluated by the onset and strength of reflexes using the Fox scale.
On PND3, PND7, and PND12 mice were evaluated for the onset of neurodevelopmental milestones through the administration of Fox scales. The latter consist of a series of rapid tests to evaluate the maturity of a series of reflexes: righting (capability of mice to turn over with all four paws on the ground when placed on its back); grasping (the mouse is placed on a wire-mesh grid which is progressively tilted until the subject harmlessly falls on a soft surface, positioned 2 cm below the grid); cliff aversion (which measures the capability of mice to withdraw from a perceived visual cliff). Furthermore, pups' bodyweight and body length were constantly monitored throughout development.

mouse pups [2] = test: Cross-fostering study of WT and St6Gal1 KO (6SL KO) mouse pups reared to WT or KO dams, with cognitive tests (T-maze, pre-pulse inhibition, Barnes maze, attentional set-shifting) in adulthood; format: in vivo; settings: mouse pups receiving milk absent of 6′-SL, compared with pups receiving milk comprising 6′-SL; evaluated as adults
From the text: as §1
Adult wild-type (WT) B6.129 and heterozygous (HZ) B6.129-St6gal1^tm2Jxm breeding pairs (four males and four females and three males and four females, respectively) were purchased from a commercial breeder (The Jackson Laboratory). Upon arrival, same-sex mice were housed in same-sex groups of 2-3 in type-1 polycarbonate cages (33.0×13.0×14.0 cm) equipped with sawdust bedding, an enrichment bag (Mucedola, Settimo Milanese, Italy), metal top and ad libitum water and food pellets (Mucedola, Settimo Milanese, Italy). Mice were maintained on a reversed 12-h-light-dark cycle (light on at 7:00 PM) in an air-conditioned room (temperature 21±1° C. and relative humidity 60±10%). Two weeks after arrival, breeding triads (one male, two females) were formed. After two weeks of mating, male mice were removed and females were housed individually in standard type-1 cages. Females were checked daily for delivery and the day in which they gave birth was designated as postnatal day (PND) 0. Apart from cage cleaning once a week, dams and their offspring were kept undisturbed until weaning (on PND 25). […]
The aforementioned subjects have then been evaluated for neurodevelopmental milestones, cognitive capabilities (inc. attention) as outlined in figure two. […]

Question: CC(=O)N[C@H]1[C@H]([C@H](O)[C@H](O)CO)O[C@@](OC[C@H]2O[C@@H](O[C@H]3[C@H](O)[C@@H](O)C(O)O[C@@H]3CO)[C@H](O)[C@@H](O)[C@H]2O)(C(=O)O)C[C@@H]1O (stereo partly drawn) [6′-sialyllactose, (6R)-5-Acetamido-3,5-dideoxy-6-[(1R,2R)-1,2,3-trihydroxypropyl]-β-L-threo-hex-2-ulopyranonosyl-(2->6)-β-D-galactopyranosyl-(1->4)-D-glucopyranose] was tested. Which “neurodevelopment evaluated by the onset and strength of reflexes using the Fox scale” value (mouse pups [1]) did it give?
Answer: no changes

Question: And the attention (mouse pups [2])?
Answer: decreased attention

Question: And the impulsivity (mouse pups [2])?
Answer: increased impulsivity
